Measured values published in patent publication US8664230B2, “Pyridopyrimidine derivatives and use thereof” (The Asan Foundation, priority 2011, dated 2014).

Key:
Test in all cases: PI3 Kinase Activity/Inhibitor Assay (Millipore kit, competitive ELISA)
Assay type in all cases: biochemical
[1] = target: PI3Kδ (Homo sapiens (Human), UniProt O00329)
From the text: (§1) The PI3 Kinase Activity/Inhibitor Assay Kit was purchased from Millipore. The dimethylsulfoxide was purchased from Sigma-Aldrich.
(§2) The PI3 Kinase Activity/Inhibitor Assay is a competitive assay used for the fast and sensitive quantitation of activity of the four class I PI3 kinases (p110 α, β, γ, δ). The PI3 Kinase Activity/Inhibitor Assay works on the principle that PI3 Kinase phosphorylates P1(3,4)P2 (PIP2), converting it to PI(3,4,5)P3 (PIP3). The PH domain of the protein GRP-1 binds PIP3 with high affinity and specificity. The kit includes this recombinant protein that is used as the capture protein. This protein binds to the glutathione plate and captures either the PIP3 generated as part of the kinase reaction or the biotinylated-PIP3 tracer included in the kit. The captured biotinylated-PIP3 is detected using streptavidin-HRP conjugate and a colorimetric read out (OD 450). The lower the signal, the higher the PI3 Kinase activity.
(§3) PI3-Kinase included in the Kit was diluted at the ratio of 1:10 with distilled water and stored on ice. The compound was prepared by diluting the stock compound to 100× of the final concentration and then diluted again at the ratio of 1:50 to make 2× of the final concentration with distilled water.
(§4) The prepared PI3-Kinase (5 μL/well) and the compound (5 μL/well) were added to Glutathione-Coated Plate and pre-incubated at room temperature for 10 minutes. After adding 5 μL of 5× Kinase reaction buffer per well, PIP2 was diluted at the ratio of 1:20 with distilled water and 5 μL were added into each well. Distilled water was added up to 25 μL, and the reaction mixture was incubated at room temperature for an hour. Biotinylated-PIP3 was diluted at the ratio of 1:18 with 1×TBS solution and 25 μL of the mixture were put in each well excluding the buffer control well. GRP1-GST was diluted at the ratio of 1:1000 with 1×TBS solution and 50 μL of it was added to every well. The mixture was incubated at room temperature for an hour.
(§5) After removing the solution contained in the wells, the wells were washed 4 times with 200 μL of 1×TBST. SA-HRP was diluted at the ratio of 1:2000 with 1×TBST, then 50 μL of it was added into every well and incubated at room temperature for an hour. Again after removing the solution, they were washed 5 times by adding 200 μL of 1×TBST to each well. 100 μL of TMB solution was added to every well. The plate was developed in the dark for 5-20 minutes. As blue color appeared, the reaction was stopped by adding 100 μL of stop solution to every well, and the plate was read at 450 nm with ELISA Reader (TECAN).
(§6) For the calculation of relative percentage to biotinylated-PIP3, we take the direct absorbance at 450 nm (A450) and set the positive Biotinylated-PIP3 wells as 100 percentage. All the other signals are divided by the Biotinylated-PIP3 average, and multiplied by 100 to show the relative percentage to the positive signal. Relative % to B-PIP3=(A450 of samples include buffer, kinase & inhibitors/A450 of Biotinylated-PIP3 average)×100
(§7) IC50 values were calculated from the values read at 450 nm by using Graphpad Prism 5 software.

[2] = target: PI3Kγ (Homo sapiens (Human), UniProt P48736)
Sequence of PI3Kγ (P48736 whole entry, species assumed): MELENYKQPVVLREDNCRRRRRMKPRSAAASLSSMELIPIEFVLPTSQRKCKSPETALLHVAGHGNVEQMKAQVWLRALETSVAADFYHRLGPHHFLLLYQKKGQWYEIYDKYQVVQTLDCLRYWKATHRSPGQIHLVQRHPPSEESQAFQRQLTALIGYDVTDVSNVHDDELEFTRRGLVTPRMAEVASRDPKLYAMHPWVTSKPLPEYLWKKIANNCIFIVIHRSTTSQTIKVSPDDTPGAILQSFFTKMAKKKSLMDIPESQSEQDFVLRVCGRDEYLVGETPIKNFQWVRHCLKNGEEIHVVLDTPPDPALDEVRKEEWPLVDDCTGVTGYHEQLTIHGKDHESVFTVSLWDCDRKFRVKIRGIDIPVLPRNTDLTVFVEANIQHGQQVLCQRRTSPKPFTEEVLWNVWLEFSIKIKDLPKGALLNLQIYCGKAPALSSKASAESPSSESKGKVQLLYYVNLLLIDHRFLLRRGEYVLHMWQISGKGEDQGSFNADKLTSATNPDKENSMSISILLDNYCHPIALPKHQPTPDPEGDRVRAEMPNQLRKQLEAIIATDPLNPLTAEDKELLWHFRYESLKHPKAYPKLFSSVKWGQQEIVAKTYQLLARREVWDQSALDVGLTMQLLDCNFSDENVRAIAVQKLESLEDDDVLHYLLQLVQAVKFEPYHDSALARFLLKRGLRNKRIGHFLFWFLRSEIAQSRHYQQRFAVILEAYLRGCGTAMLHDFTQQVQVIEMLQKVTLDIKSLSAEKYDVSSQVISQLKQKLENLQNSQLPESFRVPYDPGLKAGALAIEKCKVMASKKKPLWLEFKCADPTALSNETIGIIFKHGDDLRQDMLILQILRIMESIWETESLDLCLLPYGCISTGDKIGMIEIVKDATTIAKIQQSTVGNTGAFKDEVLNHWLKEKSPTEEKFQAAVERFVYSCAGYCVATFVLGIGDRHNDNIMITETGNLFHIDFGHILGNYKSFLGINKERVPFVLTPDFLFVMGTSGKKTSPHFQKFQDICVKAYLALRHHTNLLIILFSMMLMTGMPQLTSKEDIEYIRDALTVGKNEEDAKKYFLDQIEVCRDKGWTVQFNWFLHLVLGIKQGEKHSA
From the text: as §1, §2, §3, §4, §5, §6, §7

[3] = target: PI3Kα (Homo sapiens (Human), UniProt P42336)
Sequence of PI3Kα (P42336 whole entry, looked up, species assumed): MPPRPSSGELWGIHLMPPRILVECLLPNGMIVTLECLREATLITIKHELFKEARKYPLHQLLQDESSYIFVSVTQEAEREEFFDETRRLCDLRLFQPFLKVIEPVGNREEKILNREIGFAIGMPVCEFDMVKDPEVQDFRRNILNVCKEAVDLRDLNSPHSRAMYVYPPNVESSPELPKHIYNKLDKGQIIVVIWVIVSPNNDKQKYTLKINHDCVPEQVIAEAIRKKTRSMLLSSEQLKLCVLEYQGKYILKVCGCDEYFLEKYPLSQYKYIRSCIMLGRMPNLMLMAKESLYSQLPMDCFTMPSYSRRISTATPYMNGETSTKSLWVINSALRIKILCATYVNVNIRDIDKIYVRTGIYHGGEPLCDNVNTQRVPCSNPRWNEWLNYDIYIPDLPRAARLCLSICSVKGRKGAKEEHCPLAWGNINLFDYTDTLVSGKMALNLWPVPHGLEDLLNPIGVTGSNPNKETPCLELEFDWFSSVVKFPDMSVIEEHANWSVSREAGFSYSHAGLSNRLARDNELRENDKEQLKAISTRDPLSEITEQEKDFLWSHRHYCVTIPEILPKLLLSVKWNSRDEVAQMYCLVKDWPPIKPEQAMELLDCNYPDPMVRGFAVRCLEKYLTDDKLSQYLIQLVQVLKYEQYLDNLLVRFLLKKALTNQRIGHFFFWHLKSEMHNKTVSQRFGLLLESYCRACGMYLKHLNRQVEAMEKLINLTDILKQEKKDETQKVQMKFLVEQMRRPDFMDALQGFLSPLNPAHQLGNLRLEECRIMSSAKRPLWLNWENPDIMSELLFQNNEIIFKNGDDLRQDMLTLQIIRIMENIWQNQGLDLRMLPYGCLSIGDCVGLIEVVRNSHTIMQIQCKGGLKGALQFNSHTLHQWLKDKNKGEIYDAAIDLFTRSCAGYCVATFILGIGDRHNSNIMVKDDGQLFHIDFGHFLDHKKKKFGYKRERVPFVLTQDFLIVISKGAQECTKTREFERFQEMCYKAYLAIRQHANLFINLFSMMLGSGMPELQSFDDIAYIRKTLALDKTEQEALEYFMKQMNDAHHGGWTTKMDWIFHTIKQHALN
Sequence of PI3Kα (P27986 whole entry partner, looked up, species assumed): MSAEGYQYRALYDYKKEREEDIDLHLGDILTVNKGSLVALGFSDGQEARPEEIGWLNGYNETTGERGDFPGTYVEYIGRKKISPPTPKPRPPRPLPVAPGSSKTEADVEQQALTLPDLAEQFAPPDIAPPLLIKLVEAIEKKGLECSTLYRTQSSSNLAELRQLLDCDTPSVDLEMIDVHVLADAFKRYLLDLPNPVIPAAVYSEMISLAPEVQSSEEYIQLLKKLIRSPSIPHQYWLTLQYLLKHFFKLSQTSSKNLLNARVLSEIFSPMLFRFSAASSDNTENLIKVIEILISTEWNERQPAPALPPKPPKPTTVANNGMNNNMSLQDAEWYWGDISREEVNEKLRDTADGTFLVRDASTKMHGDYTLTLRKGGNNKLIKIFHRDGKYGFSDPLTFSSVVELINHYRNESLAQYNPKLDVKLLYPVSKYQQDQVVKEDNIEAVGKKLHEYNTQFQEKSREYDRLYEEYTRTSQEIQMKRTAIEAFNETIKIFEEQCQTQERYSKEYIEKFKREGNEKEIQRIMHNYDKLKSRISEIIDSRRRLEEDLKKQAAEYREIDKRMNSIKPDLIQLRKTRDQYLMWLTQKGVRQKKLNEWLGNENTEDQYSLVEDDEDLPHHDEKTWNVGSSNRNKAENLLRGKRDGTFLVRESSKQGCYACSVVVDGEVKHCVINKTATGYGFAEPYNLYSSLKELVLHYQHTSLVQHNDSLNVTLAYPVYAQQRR
From the text: as §1, §2, §3, §4, §5, §6, §7

Sequence of PI3Kδ (O00329 whole entry, species assumed): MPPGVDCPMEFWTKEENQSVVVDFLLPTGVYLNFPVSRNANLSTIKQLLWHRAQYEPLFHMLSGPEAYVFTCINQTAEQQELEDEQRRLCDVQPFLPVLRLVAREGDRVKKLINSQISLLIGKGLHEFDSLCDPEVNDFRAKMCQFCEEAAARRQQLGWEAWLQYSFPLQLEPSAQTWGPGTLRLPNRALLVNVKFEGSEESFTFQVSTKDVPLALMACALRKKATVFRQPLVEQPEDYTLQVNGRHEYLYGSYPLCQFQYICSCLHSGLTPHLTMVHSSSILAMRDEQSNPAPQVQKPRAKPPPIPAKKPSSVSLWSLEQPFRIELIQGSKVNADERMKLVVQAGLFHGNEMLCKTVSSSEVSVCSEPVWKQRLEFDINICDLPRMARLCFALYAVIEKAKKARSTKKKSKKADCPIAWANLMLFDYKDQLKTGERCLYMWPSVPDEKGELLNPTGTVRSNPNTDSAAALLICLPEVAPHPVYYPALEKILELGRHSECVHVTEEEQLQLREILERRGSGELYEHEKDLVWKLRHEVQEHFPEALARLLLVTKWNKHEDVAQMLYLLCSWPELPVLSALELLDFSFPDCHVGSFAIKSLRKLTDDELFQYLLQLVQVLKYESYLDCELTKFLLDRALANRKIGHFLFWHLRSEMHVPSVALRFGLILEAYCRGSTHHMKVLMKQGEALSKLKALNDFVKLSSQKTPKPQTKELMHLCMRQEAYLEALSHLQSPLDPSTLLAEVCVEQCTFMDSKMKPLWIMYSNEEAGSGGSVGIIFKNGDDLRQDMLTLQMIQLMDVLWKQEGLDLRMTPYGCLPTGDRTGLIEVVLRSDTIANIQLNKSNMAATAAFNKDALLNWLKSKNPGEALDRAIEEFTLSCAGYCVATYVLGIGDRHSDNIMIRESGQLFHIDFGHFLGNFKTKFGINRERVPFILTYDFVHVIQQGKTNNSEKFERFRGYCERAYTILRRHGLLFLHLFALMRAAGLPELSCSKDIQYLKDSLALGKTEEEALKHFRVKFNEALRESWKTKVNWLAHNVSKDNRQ
Sequence of PI3Kδ (P27986 whole entry partner, species assumed): as the sequence (P27986 whole entry partner, looked up, species assumed) above

Row | Compound | IC50 [1] | IC50 [2] | IC50 [3]
1 | CN1CCC(Oc2ncnc3ccc(-c4cnc(Cl)c(NS(=O)(=O)c5ccc(F)cc5F)c4)nc23)CC1 | < 1 µM | < 10 µM | < 1 µM
2 | O=S(=O)(Nc1cc(-c2ccc3ncnc(NC4CCOCC4)c3n2)cnc1Cl)c1ccc(F)cc1F | < 10 µM | < 10 µM | < 10 µM
3 | O=S(=O)(Nc1cncc(-c2ccc3ncnc(OC4CCOCC4)c3n2)c1)c1ccccc1 | < 10 µM | < 1 µM | < 10 µM
4 | O=S(=O)(Nc1cncc(-c2ccc3ncnc(Oc4cccnc4)c3n2)c1)c1ccccc1 | < 10 µM | < 1 µM | < 10 µM

Results, then the molecule that gave them:

Row | IC50 [1] | IC50 [2] | IC50 [3] | Compound
5 | < 10 µM | < 10 µM | < 10 µM | CN1CCC(Oc2ncnc3ccc(-c4cncc(NS(=O)(=O)c5ccccc5)c4)nc23)CC1
6 | < 1 µM | < 1 µM | < 1 µM | O=S(=O)(Nc1cc(-c2ccc3ncnc(OC4CCOCC4)c3n2)cnc1Cl)c1ccc(F)cc1F
